Laboratory results published in patent EP0661266A1, “Substituted cyclic amine compounds as 5HT2 antagonists” (TOA EIYO LTD., priority 1993, dated 1995).
Structures can show the parent of a compound that is named as a salt. Where two headings read alike, the source gives them in different places.

Experiments:
serotonin 2 receptor = target: T1, serotonin 2 receptor (Rattus norvegicus, UniProt P14842); assay: Measurement of serotonin 2 receptor antagonistic activity (serotonin contraction of excised rat tail artery spiral specimen); format: cell-based; conditions: against the contraction of 3 x 10⁻⁶ serotonin, drug administered 10 minutes before cumulative serotonin, read-out: IC₅₀ value
T1 construct: A piece of wire was inserted into each of the thus excised blood vessels to prepare a spiral specimen; from tissue; host or cells: rat (Wistar-KY) abdominal side tail artery, spiral specimen
Description: [Measurement of serotonin 2 receptor antagonistic activity]
Male rats of Wistar-KY line (body weight, approximately 220 to 370 g) were sacrificed and subjected to bloodletting to excise abdominal side tail arteries. A piece of wire was inserted into each of the thus excised blood vessels to prepare a spiral specimen (approximately 1.5 x 30 mm). The specimen was suspended in a Magnus tube (10 ml; Krebs-Hensereit solution) with a load of 500 mg at 37°C, and a gas mixture of 95% O₂ + CO₂ was passed through the tube. Tensile force was measured using a tension transducer (TB-621T, manufactured by Nippon Koden) and writing the data on an ink recorder (FBA-253A, manufactured by Toa Denpa) via a pressure amplifier (AP-621G, manufactured by Nippon Koden). After 1 hour of equilibration time, the specimen was contracted with 10⁻⁵ M of serotonin, washed and then subjected to cumulative administration of 10⁻⁸ to 3 x 10⁻⁵ M serotonin at intervals of 45 minutes to record the resulting contraction twice. The second recording was used as a control. Thereafter, each of the drugs to be tested was administered 10 minutes before the commencement of the cumulative administration to evaluate its serotonin antagonism. […] In the table, each result was indicated by "+" when the IC₅₀ value was 1.0 x 10⁻⁷ M or more, "++" when the value was 9.9 x 10⁻⁸ to 1.0 x 10⁻⁸ M and "+++" when the value was 9.9 x 10⁻⁹ M or smaller.

platelet aggregation = assay: Measurement of platelet aggregation inhibition activity (5-HTP plus collagen induced aggregation of platelet rich plasma); format: cell-based; conditions: Oryctolagus cuniculus, rabbit PRP, 5-HTP final concentration 3 µM plus collagen in a concentration which alone does not cause aggregation, probit analysis, read-out: IC₅₀ value
Description: [Measurement of platelet aggregation inhibition activity]
Measurement of platelet aggregation was carried out using a platelet aggregation measuring apparatus NSB Hematracer 601.
Blood samples were collected from auricular arteries of male Japanese white rabbits (2 to 3 kg) using a syringe containing 1 volume of 3.8% sodium citrate per 9 volumes of blood and centrifuged at 900 rpm for 10 minutes. After collecting the resulting supernatant fluid as platelet rich plasma (PRP), the remaining lower layer was centrifuged at 3,000 rpm for 10 minutes to obtain platelet poor plasma (PPP). Platelets in the thus obtained PRP were counted using a microcell counter (Sysmex F-800, manufactured by Toa Iyo Denshi) and diluted with the PPP to a density of 30 x 10⁴/µl.
A 220 µl portion of PRP was mixed with 5 µl of 104 mM CaCl₂, incubated at 37°C for 1 minute and then mixed with 5 µl of a drug to be tested or physiological saline as a control. […] Activities to inhibit the aggregation reaction were measured to calculate 50% inhibition concentration (IC₅₀) by probit analysis, with the results shown in Table 2. In the table, each result was indicated by "+" when the IC₅₀ value was 1.0 x 10⁻⁶ M or more, "++" when the value was 9.9 x 10⁻⁷ to 1.0 x 10⁻⁷ M and "+++" when the value was 9.9 x 10⁻⁸ M or smaller.

[1] = test system: 5-HTP-induced head-twitch; assay: Measurement of activity to inhibit 5-HTP-induced head-twitch; format: in vivo, mouse; conditions: read-out: IC₅₀ value
Description: [Measurement of activity to inhibit 5-HTP-induced head-twitch]
To each ICR male mouse of 4 weeks of age were administered 300 mg/kg of 5-HTP by intraperitoneal injection (i.p.) and then 0.03 to 3 mg/kg of each test drug 25 minutes thereafter by intravenous injection, thereby counting the number of head-twitch induced after 5 minutes of the administration (for 20 minutes) and calculating the IC₅₀ value. In the table, each result was indicated by "+" when the IC₅₀ value was […] or more, "++" when the value was 100 to 999 mg/kg and "+++" when the value was 99 mg/kg or less.

T1 sequence (P14842 whole entry): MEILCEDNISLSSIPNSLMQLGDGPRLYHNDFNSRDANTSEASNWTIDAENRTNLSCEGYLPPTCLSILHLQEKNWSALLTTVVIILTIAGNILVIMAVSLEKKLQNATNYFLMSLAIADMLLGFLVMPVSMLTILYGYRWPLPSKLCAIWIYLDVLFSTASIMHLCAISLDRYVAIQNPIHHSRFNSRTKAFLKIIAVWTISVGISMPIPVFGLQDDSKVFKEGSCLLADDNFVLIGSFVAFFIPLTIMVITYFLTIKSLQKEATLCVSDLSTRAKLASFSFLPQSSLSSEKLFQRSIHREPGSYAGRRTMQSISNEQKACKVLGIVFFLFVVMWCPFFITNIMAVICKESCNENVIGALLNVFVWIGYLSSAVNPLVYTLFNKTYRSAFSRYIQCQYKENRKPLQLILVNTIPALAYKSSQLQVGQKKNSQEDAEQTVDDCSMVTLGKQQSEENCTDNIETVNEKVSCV

| SMILES | IC50 (serotonin 2 receptor) [nM] | IC50 (platelet aggregation) [nM] | ED50 ([1]; Mus musculus, iv) [mg/kg] | ED50 ([1]; ICR male mouse, 300 mg/kg 5-HTP i.p., test drug 0.03 to 3 mg/kg intravenous 25 minutes thereafter, head-twitch counted for 20 minutes) [mg/kg] |
| --- | --- | --- | --- | --- |
| COc1cccc(CC(CCN2CCC(C(=O)c3ccc(F)cc3)CC2)c2ccccc2OC)c1 (stereo not drawn) [A, 4-(4-Fluorobenzoyl)-1-[3-(2-methoxyphenyl)-4-(3-methoxyphenyl)butyl]piperidine hydrochloride] | 10 to 99 | – | – | – |
| COc1cccc(C(=O)N(CCN2CCC(C(=O)c3ccc(F)cc3)CC2)c2ccccc2OC)c1 [B, N-{2-[4-(4-Fluorobenzoyl)piperidino]ethyl}-3-methoxy-N-(2-methoxyphenyl)benzamide oxalate] | 10 to 99 | – | – | – |
| COc1ccc(S(=O)(=O)N(CCN2CCC(C(=O)c3ccc(F)cc3)CC2)c2ccccc2OC)cc1 [C, N-{2-[4-(4-Fluorobenzoyl)piperidino]ethyl}-4-methoxy-N-(2-methoxyphenyl)benzenesulfonamide oxalate] | – | ≥ 1000 | – | – |
| COc1ccc(S(=O)(=O)NC(=N)CCN2CCC(C(=O)c3ccc(F)cc3)CC2)cc1 [Compound I, 3-[4-(4-Fluorobenzoyl)piperidino]-N-(4-methoxybenzenesulfonyl)propionamidine oxalate] | 10 to 99 | – | – | – |
| COc1ccccc1N(CCN1CCC(C(=O)c2ccc(F)cc2)CC1)S(=O)(=O)c1ccc(F)cc1 [D, 4-Fluoro-N-{2-[4-(4-fluorobenzoyl)piperidino]ethyl}-N-(2-methoxyphenyl)benzenesulfonamide oxalate] | 10 to 99 | – | – | – |
| COc1ccc(S(=O)(=O)N(CCN2CCC(C(=O)c3ccc(F)cc3)CC2)C2CCCCC2)cc1 [E, N-Cyclohexyl-N-{2-[4-(4-fluorobenzoyl)piperidino]ethyl}-4-methoxybenzenesulfonamide oxalate] | 10 to 99 | – | – | – |
| COc1ccccc1N(CCN1CCC(C(=O)c2ccc(F)cc2)CC1)S(=O)(=O)c1ccc(CO)cc1 [F, N-{2-[4-(4-Fluorobenzoyl)piperidino]ethyl}-4-hydroxymethyl-N-(2-methoxyphenyl)benzenesulfonamide oxalate] | < 9.9 | – | – | – |
| COc1ccccc1N(CCN1CCC(C(=O)c2ccc(F)cc2)CC1)C(=O)c1ccc(CO)cc1.O=C(O)C(=O)O [G, N-{2-[4-(4-Fluorobenzoyl)piperidino]ethyl}-4-hydroxymethyl-N-(2-methoxyphenyl)benzamide oxalate] | – | 100 to 990 | < 99 | – |
| COc1ccccc1N(CCN1CCC(C(=O)c2ccc(F)cc2)CC1)C(=O)c1ccc(CN)cc1.O=C(O)C(=O)O [H, 4-Aminomethyl-N-{2-[4-(4-fluorobenzoyl)piperidino]ethyl}-N-(2-methoxyphenyl)benzamide oxalate] | 10 to 99 | 100 to 990 | > 1000 | – |
| COc1cccc(N(CCN2CCC(C(=O)c3ccc(F)cc3)CC2)C(=O)c2ccc(NC(C)=O)cc2)c1.O=C(O)/C=C/C(=O)O [J, 4-Acetylamino-N-{2-[4-(4-fluorobenzoyl)piperidino]ethyl}-N-(3-methoxyphenyl)benzamide fumarate] | 10 to 99 | < 99 | 100 to 999 | – |
| CC(=O)Nc1ccc(C(=O)N(CCN2CCC(C(=O)c3ccc(F)cc3)CC2)c2ccccc2)cc1 [K, 4-Acetylamino-N-{2-[4-(4-fluorobenzoyl)piperidino]ethyl}-N-(phenyl)benzamide fumarate] | 10 to 99 | – | – | – |
| O=C(c1ccc(F)cc1)C1CCN(CCn2c(=O)[nH]c3ccccc3c2=O)CC1 [ketanserin, reference compound] | – | 100 to 990 | – | < 99 |
